Laboratory results: patent publication US10201532B2, “Compounds and their use” (ALLECRA THERAPEUTICS GMBH, priority 2010, dated 2019)

What was measured:
[1] = tested on: KPC-3 expressing E. coli (J53 R6206); assay: Synergistic broth micro-dilution MIC (checkerboard); type: cell-based, Escherichia coli; conditions: for MIC: Escherichia coli, read-out: MIC of BLI alone, BLI alone
[2] = biological target: crude KPC-3 enzyme extract (UniProt Q9F663, H272Y, species not given); assay: β-Lactamase inhibitory assay with CENTA substrate; type: biochemical; conditions: also headed KPC2
Source text: (§1) The Compound-1 was subjected to β-lactamase inhibitory assay to determine IC50 and to compare that with the comparator BLI agents as described elsewhere (Bebrone et. al., Antimicrob. Agents. Chemother, 2001, 45(6): 1868-1871; Jamieson et. al, Antimicrob. Agents. Chemother, 2003, 47(5): 1652-1657). Briefly, enzyme extracts from KPC-2 producing and KPC-3 expressing bacterial gram negative strains were used to study the β-lactamase inhibitory activity and determination of IC50 using CENTA as the substrate for β-lactamase.

[3] = biological target: T1, crude KPC-2 enzyme extract (Klebsiella pneumoniae, UniProt Q9F663); assay: β-Lactamase inhibitory assay with CENTA substrate; type: biochemical
T1 construct: enzyme extracts from KPC-2 producing and KPC-3 expressing bacterial gram negative strains were used; endogenous in cells; host or cells: KPC-2 producing gram-negative strain
Source text: as §1

[4] = tested on: KPC-2 producing K. pneumoniae (ATCC BAA-1705); assay: Synergistic broth micro-dilution MIC (checkerboard); type: cell-based, Klebsiella pneumoniae; conditions: for MIC of Cefepime in combination with BLI / MIC of Cefotaxime in combination with BLI / MIC of Ceftazidime in combination with BLI / MIC of Ceftobiprole in combination with BLI / MIC of Imipenem in combination with BLI / MIC of Meropenem in combination with BLI / MIC of Aztreonam in combination with BLI / MIC of Ertapenem in combination with BLI / MIC of Faropenem in combination with BLI: ATCC BAA-1705; for MIC: Klebsiella pneumoniae, ATCCBAA1705, read-out: MIC of BLI alone

T1 sequence (Q9F663 25-293 limits assumed): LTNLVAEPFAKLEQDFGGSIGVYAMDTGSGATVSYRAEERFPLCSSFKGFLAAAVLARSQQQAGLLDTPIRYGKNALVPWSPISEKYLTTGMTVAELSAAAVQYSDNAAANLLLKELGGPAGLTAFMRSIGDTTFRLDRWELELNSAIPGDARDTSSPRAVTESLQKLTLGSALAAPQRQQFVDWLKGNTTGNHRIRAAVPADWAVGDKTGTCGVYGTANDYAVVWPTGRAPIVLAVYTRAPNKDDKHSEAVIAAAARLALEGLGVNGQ

CC1(C)[C@H](C(=O)O)N2C(=O)C[C@H]2S1(=O)=O [Sulbactam]
16 to 32 µg/mL: MIC of Imipenem in combination with BLI ([4]; BLI at 2 μg/mL) | MIC of Imipenem in combination with BLI ([4]; BLI at 4 μg/mL)
> 8 µg/mL: MIC [1]
≥64 µg/mL: MIC of Cefepime in combination with BLI ([4]; BLI at 4 μg/mL)
32 µg/mL: MIC of Ceftazidime in combination with BLI ([1]; BLI at 2 μg/mL) | MIC of Ceftobiprole in combination with BLI ([1]; BLI at 2 μg/mL) | MIC of Ceftazidime in combination with BLI ([1]; BLI at 4 μg/mL) | MIC of Ceftobiprole in combination with BLI ([1]; BLI at 4 μg/mL) | MIC of Ceftazidime in combination with BLI ([1]; BLI at 8 μg/mL) | MIC of Meropenem in combination with BLI ([4]; BLI at 2 μg/mL) | MIC of Meropenem in combination with BLI ([4]; BLI at 4 μg/mL) | MIC of Meropenem in combination with BLI ([4]; BLI at 8 μg/mL) | MIC of Cefotaxime in combination with BLI ([4]; BLI at 16 μg/mL) | MIC of Meropenem in combination with BLI ([4]; BLI at 16 μg/mL) | MIC of Cefotaxime in combination with BLI ([4]; BLI at 64 μg/mL)
16 µg/mL: MIC of Cefepime in combination with BLI ([1]; BLI at 2 μg/mL) | MIC of Cefepime in combination with BLI ([1]; BLI at 4 μg/mL) | MIC of Cefotaxime in combination with BLI ([1]; BLI at 4 μg/mL) | MIC of Ceftobiprole in combination with BLI ([1]; BLI at 8 μg/mL) | MIC of Imipenem in combination with BLI ([4]; BLI at 8 μg/mL) | MIC of Meropenem in combination with BLI ([4]; BLI at 64 μg/mL)
> 64 µg/mL: MIC [4]
64 µg/mL: MIC of Cefepime in combination with BLI ([4]; BLI at 8 μg/mL) | MIC of Cefotaxime in combination with BLI ([4]; BLI at 8 μg/mL) | MIC of Cefepime in combination with BLI ([4]; BLI at 16 μg/mL) | MIC of Cefepime in combination with BLI ([4]; BLI at 64 μg/mL) | MIC of Ceftazidime in combination with BLI ([4]; BLI at 64 μg/mL) | MIC of Ertapenem in combination with BLI ([4]; BLI at 64 μg/mL)
>64 µg/mL: MIC of Cefepime in combination with BLI ([4]; BLI at 2 μg/mL) | MIC of Cefotaxime in combination with BLI ([4]; BLI at 2 μg/mL) | MIC of Ceftazidime in combination with BLI ([4]; BLI at 2 μg/mL) | MIC of Ceftobiprole in combination with BLI ([4]; BLI at 2 μg/mL) | MIC of Aztreonam in combination with BLI ([4]; BLI at 4 μg/mL) | MIC of Cefotaxime in combination with BLI ([4]; BLI at 4 μg/mL) | MIC of Ceftazidime in combination with BLI ([4]; BLI at 4 μg/mL) | MIC of Ceftobiprole in combination with BLI ([4]; BLI at 4 μg/mL) | MIC of Ertapenem in combination with BLI ([4]; BLI at 4 μg/mL) | MIC of Faropenem in combination with BLI ([4]; BLI at 4 μg/mL) | MIC of Ceftazidime in combination with BLI ([4]; BLI at 8 μg/mL) | MIC of Ceftobiprole in combination with BLI ([4]; BLI at 8 μg/mL) | MIC of Ertapenem in combination with BLI ([4]; BLI at 8 μg/mL) | MIC of Faropenem in combination with BLI ([4]; BLI at 8 μg/mL) | MIC of Aztreonam in combination with BLI ([4]; BLI at 16 μg/mL) | MIC of Ceftazidime in combination with BLI ([4]; BLI at 16 μg/mL) | MIC of Ceftobiprole in combination with BLI ([4]; BLI at 16 μg/mL) | MIC of Ertapenem in combination with BLI ([4]; BLI at 16 μg/mL) | MIC of Faropenem in combination with BLI ([4]; BLI at 16 μg/mL) | MIC of Aztreonam in combination with BLI ([4]; BLI at 64 μg/mL) | MIC of Ceftobiprole in combination with BLI ([4]; BLI at 64 μg/mL) | MIC of Faropenem in combination with BLI ([4]; BLI at 64 μg/mL)
>32 µg/mL: MIC of Cefotaxime in combination with BLI ([1]; BLI at 2 μg/mL)
2 µg/mL: MIC of Meropenem in combination with BLI ([1]; BLI at 2 μg/mL) | MIC of Imipenem in combination with BLI ([1]; BLI at 4 μg/mL) | MIC of Imipenem in combination with BLI ([1]; BLI at 8 μg/mL)
1400 µM: IC50 [3]
4 µg/mL: MIC of Imipenem in combination with BLI ([1]; BLI at 2 μg/mL)
8 µg/mL: MIC of Cefepime in combination with BLI ([1]; BLI at 8 μg/mL) | MIC of Cefotaxime in combination with BLI ([1]; BLI at 8 μg/mL) | MIC of Imipenem in combination with BLI ([4]; BLI at 16 μg/mL) | MIC of Imipenem in combination with BLI ([4]; BLI at 64 μg/mL)
235 µM: IC50 [2]
1 µg/mL: MIC of Meropenem in combination with BLI ([1]; BLI at 4 μg/mL) | MIC of Meropenem in combination with BLI ([1]; BLI at 8 μg/mL)

O=C(O)[C@H]1/C(=C/CO)O[C@@H]2CC(=O)N21 [Clavulanic acid]
16 µg/mL: MIC of Meropenem in combination with BLI ([4]; BLI at 2 μg/mL) | MIC of Cefotaxime in combination with BLI ([4]; BLI at 16 μg/mL) | MIC of Ceftazidime in combination with BLI ([4]; BLI at 64 μg/mL)
<0.5 µg/mL: MIC of Imipenem in combination with BLI ([4]; BLI at 64 μg/mL)
>64 µg/mL: MIC of Ceftazidime in combination with BLI ([4]; BLI at 2 μg/mL) | MIC of Ceftobiprole in combination with BLI ([4]; BLI at 2 μg/mL) | MIC of Faropenem in combination with BLI ([4]; BLI at 2 μg/mL) | MIC of Aztreonam in combination with BLI ([4]; BLI at 4 μg/mL) | MIC of Ceftazidime in combination with BLI ([4]; BLI at 4 μg/mL) | MIC of Ceftobiprole in combination with BLI ([4]; BLI at 4 μg/mL) | MIC of Faropenem in combination with BLI ([4]; BLI at 4 μg/mL) | MIC of Ceftazidime in combination with BLI ([4]; BLI at 8 μg/mL) | MIC of Ceftobiprole in combination with BLI ([4]; BLI at 8 μg/mL) | MIC of Aztreonam in combination with BLI ([4]; BLI at 16 μg/mL) | MIC of Ceftobiprole in combination with BLI ([4]; BLI at 16 μg/mL) | MIC of Faropenem in combination with BLI ([4]; BLI at 16 μg/mL) | MIC of Faropenem in combination with BLI ([4]; BLI at 64 μg/mL)
> 64 µg/mL: MIC [4]
4 µg/mL: MIC of Cefotaxime in combination with BLI ([1]; BLI at 2 μg/mL) | MIC of Meropenem in combination with BLI ([4]; BLI at 8 μg/mL) | MIC of Meropenem in combination with BLI ([4]; BLI at 16 μg/mL)
8 µg/mL: MIC of Cefepime in combination with BLI ([1]; BLI at 2 μg/mL) | MIC of Ceftobiprole in combination with BLI ([1]; BLI at 2 μg/mL) | MIC of Cefepime in combination with BLI ([1]; BLI at 4 μg/mL) | MIC of Ceftobiprole in combination with BLI ([1]; BLI at 4 μg/mL) | MIC of Ceftazidime in combination with BLI ([1]; BLI at 8 μg/mL) | MIC of Cefepime in combination with BLI ([4]; BLI at 64 μg/mL) | MIC of Cefotaxime in combination with BLI ([4]; BLI at 64 μg/mL) | MIC of Ertapenem in combination with BLI ([4]; BLI at 64 μg/mL)
32 to 64 µg/mL: MIC of Cefotaxime in combination with BLI ([4]; BLI at 2 μg/mL) | MIC of Cefotaxime in combination with BLI ([4]; BLI at 4 μg/mL)
330 µM: IC50 [3]
8 to 16 µg/mL: MIC of Imipenem in combination with BLI ([4]; BLI at 2 μg/mL) | MIC of Imipenem in combination with BLI ([4]; BLI at 4 μg/mL)
32 µg/mL: MIC of Ceftazidime in combination with BLI ([1]; BLI at 2 μg/mL) | MIC of Ceftazidime in combination with BLI ([1]; BLI at 4 μg/mL) | MIC of Ertapenem in combination with BLI ([4]; BLI at 2 μg/mL) | MIC of Cefepime in combination with BLI ([4]; BLI at 8 μg/mL) | MIC of Cefepime in combination with BLI ([4]; BLI at 16 μg/mL) | MIC of Ertapenem in combination with BLI ([4]; BLI at 16 μg/mL)
0.5 µg/mL: MIC of Imipenem in combination with BLI ([1]; BLI at 8 μg/mL) | MIC of Meropenem in combination with BLI ([1]; BLI at 8 μg/mL)
16 to 32 µg/mL: MIC of Cefotaxime in combination with BLI ([4]; BLI at 8 μg/mL)
4 to 8 µg/mL: MIC of Meropenem in combination with BLI ([4]; BLI at 4 μg/mL) | MIC of Imipenem in combination with BLI ([4]; BLI at 8 μg/mL)
64 µg/mL: MIC of Cefepime in combination with BLI ([4]; BLI at 2 μg/mL) | MIC of Cefepime in combination with BLI ([4]; BLI at 4 μg/mL) | MIC of Ertapenem in combination with BLI ([4]; BLI at 4 μg/mL) | MIC of Ceftazidime in combination with BLI ([4]; BLI at 16 μg/mL) | MIC of Aztreonam in combination with BLI ([4]; BLI at 64 μg/mL) | MIC of Ceftobiprole in combination with BLI ([4]; BLI at 64 μg/mL)
> 8 µg/mL: MIC [1]
1 µg/mL: MIC of Imipenem in combination with BLI ([1]; BLI at 2 μg/mL) | MIC of Meropenem in combination with BLI ([1]; BLI at 2 μg/mL) | MIC of Cefotaxime in combination with BLI ([1]; BLI at 4 μg/mL) | MIC of Imipenem in combination with BLI ([1]; BLI at 4 μg/mL) | MIC of Meropenem in combination with BLI ([1]; BLI at 4 μg/mL) | MIC of Cefepime in combination with BLI ([1]; BLI at 8 μg/mL)
92 µM: IC50 [2]
<0.25 µg/mL: MIC of Cefotaxime in combination with BLI ([1]; BLI at 8 μg/mL)
2 µg/mL: MIC of Ceftobiprole in combination with BLI ([1]; BLI at 8 μg/mL) | MIC of Imipenem in combination with BLI ([4]; BLI at 16 μg/mL) | MIC of Meropenem in combination with BLI ([4]; BLI at 64 μg/mL)
